Test results reported in the OPERA property sets (Mansouri et al. 2018).

Row | logP | Structure (SMILES)
1 | 1.36 | CNC(=O)COc1ccccc1OCC(O)CNC(C)(C)C (configuration not stated)
2 | 1.69 | COc1ccccc1OCC(O)CNC(C)C (configuration not stated)
3 | 2.32 | C#CCOc1ccccc1OCC(O)CNC(C)(C)C (configuration not stated)
4 | 3.67 | Cc1ccccc1OCC(O)CNCC(O)COc1ccccc1C (configuration not stated)

The remaining lines, values behind:

Row | Structure (SMILES) | logP
5 | Cc1cc2c(OCC(O)CNC(C)C)cccc2[nH]1 (configuration not stated) | 2.3
6 | CC(C)NC[C@H](O)COc1ccc(OCCOCCc2ccc(F)cc2)cc1 | 3.7
7 | CC(=O)Nc1ccc(OCC(O)CNC(C)C)c(C(C)=O)c1 (configuration not stated) | 0.94
8 | CC(=O)c1cc2cccc(OCC(O)CNC(C)C)c2o1 (configuration not stated) | 2.02
9 | CC(C)NCC(O)COc1ccc(COCCOC(C)C)cc1 (configuration not stated) | 1.87
10 | CC(C)NCC(O)COc1ccccc1C1CC1 (configuration not stated) | 3.07
11 | CC(=O)Nc1ccc(OCC(O)CNCC(O)COc2ccccc2)cc1 (configuration not stated) | 1.39
12 | CC(C)NCC(O)COc1ccc(CCOCC2CC2)cc1 (configuration not stated) | 2.81
